The results in this text go back to ChEMBL document CHEMBL5291721, “A preclinical secondary pharmacology resource illuminates target-adverse drug reaction associations of marketed drugs” (Nat Commun, 2023).

Test [1] deals with T1, Adenosine receptor A3 (Homo sapiens, UniProt P0DMS8).
T1 sequence (P0DMS8 whole entry): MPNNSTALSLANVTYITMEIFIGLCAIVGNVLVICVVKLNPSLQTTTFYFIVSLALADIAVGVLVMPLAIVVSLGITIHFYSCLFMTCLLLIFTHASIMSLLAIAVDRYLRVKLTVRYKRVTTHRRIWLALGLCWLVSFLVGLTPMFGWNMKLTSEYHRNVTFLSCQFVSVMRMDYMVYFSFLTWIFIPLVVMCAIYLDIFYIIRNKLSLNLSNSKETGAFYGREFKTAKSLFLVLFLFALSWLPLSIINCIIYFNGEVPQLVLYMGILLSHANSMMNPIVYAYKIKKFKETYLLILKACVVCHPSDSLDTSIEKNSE

Test [2] has as its target Delta-type opioid receptor (Homo sapiens, UniProt P41143).
Test [3] deals with Muscarinic acetylcholine receptor M3 (Homo sapiens, UniProt P20309).
Test [4] concerns the target T2, Cholecystokinin receptor type A (Homo sapiens, UniProt P32238).
T2 sequence (P32238 whole entry): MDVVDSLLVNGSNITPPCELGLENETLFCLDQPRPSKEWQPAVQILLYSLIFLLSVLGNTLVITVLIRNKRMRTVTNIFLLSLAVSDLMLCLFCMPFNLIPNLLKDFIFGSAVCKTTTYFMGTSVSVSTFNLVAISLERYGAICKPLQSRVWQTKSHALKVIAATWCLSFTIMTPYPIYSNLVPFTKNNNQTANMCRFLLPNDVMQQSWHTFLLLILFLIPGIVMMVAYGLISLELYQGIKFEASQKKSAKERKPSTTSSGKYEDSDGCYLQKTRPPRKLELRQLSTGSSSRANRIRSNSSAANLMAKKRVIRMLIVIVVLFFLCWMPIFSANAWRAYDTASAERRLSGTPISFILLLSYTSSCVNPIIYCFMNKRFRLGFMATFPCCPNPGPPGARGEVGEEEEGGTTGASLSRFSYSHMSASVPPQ

Test [5] concerns the target Sodium-dependent serotonin transporter (Homo sapiens, UniProt P31645).
Test [6] concerns the target T3, Progesterone receptor (Homo sapiens, UniProt P06401).
T3 sequence (P06401 whole entry): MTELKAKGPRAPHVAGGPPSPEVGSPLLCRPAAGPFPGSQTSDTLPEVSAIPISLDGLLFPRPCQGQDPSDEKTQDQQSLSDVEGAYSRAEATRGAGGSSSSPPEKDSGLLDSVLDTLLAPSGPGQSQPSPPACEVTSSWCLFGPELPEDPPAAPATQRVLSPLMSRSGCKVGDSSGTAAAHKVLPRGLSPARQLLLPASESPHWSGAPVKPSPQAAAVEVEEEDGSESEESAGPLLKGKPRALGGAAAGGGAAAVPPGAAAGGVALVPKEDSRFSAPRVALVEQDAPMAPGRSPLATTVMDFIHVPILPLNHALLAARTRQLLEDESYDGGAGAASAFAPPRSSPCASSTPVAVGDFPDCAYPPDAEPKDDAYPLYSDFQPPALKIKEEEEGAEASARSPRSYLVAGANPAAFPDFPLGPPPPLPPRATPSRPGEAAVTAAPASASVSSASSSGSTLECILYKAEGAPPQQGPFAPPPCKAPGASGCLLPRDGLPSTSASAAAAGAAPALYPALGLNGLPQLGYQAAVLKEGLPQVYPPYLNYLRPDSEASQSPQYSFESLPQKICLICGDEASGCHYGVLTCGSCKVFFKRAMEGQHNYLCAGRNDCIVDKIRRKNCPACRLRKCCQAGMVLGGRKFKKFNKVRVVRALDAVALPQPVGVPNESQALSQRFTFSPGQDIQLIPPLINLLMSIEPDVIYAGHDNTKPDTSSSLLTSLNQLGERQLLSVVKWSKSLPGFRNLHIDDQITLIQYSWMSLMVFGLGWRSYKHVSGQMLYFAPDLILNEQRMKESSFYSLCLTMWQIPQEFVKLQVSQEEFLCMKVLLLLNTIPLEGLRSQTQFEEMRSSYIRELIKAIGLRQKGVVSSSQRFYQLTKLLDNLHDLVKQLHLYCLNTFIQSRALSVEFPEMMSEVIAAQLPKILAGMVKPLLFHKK
The class given is functional.

The target of test [7] is Histamine H3 receptor (Homo sapiens, UniProt Q9Y5N1).
For test [8], the target named is Kappa-type opioid receptor (Homo sapiens, UniProt P41145).
Test [9] has as its target Histamine H2 receptor (Homo sapiens, UniProt P25021). It counts as functional, cell-based.
Test [10] addresses T4, Estrogen receptor (Homo sapiens, UniProt P03372).
T4 sequence (P03372 whole entry): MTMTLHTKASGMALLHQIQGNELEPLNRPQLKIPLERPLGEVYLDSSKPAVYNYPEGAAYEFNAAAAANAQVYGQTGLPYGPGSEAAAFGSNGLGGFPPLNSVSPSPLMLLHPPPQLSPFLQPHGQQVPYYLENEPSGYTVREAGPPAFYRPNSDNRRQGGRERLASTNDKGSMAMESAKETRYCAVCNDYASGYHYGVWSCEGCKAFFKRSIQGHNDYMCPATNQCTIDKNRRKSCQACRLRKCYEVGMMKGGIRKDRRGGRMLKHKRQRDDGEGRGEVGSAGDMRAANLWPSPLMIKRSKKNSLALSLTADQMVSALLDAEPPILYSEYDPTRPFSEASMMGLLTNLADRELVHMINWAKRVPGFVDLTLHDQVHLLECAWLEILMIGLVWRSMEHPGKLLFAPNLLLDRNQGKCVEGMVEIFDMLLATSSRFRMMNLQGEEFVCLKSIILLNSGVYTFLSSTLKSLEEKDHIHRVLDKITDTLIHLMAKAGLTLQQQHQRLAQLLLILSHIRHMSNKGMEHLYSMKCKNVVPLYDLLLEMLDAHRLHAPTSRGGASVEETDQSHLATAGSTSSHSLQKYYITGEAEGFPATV
Note: assay procedure not described here.

Sequence of Histamine H2 receptor (P25021 whole entry): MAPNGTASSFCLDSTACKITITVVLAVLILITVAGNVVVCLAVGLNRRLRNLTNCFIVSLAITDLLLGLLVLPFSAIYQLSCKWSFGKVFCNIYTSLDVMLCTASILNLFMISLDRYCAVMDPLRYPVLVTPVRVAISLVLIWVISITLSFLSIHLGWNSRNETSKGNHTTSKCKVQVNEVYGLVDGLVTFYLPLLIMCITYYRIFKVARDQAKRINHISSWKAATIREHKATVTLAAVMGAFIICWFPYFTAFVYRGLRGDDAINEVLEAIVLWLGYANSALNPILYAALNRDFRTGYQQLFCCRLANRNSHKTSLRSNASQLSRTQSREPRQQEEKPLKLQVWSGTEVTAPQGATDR
Sequence of Muscarinic acetylcholine receptor M3 (P20309 whole entry): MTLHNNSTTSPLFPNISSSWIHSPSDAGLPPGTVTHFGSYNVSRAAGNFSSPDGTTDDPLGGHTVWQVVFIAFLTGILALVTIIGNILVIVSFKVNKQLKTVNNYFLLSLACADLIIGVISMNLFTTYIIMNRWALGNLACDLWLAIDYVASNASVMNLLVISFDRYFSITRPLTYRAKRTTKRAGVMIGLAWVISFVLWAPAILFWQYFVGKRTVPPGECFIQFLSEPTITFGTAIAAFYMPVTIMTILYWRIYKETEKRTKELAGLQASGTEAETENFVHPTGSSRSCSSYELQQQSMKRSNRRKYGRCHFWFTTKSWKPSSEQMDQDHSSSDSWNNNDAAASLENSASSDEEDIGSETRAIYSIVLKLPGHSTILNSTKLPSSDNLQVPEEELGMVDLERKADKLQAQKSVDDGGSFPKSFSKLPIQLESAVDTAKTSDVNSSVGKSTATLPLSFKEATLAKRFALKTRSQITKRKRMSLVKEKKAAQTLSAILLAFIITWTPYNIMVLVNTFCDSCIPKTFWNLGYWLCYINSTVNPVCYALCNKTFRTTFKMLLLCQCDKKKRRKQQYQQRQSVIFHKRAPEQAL
Sequence of Sodium-dependent serotonin transporter (P31645 whole entry): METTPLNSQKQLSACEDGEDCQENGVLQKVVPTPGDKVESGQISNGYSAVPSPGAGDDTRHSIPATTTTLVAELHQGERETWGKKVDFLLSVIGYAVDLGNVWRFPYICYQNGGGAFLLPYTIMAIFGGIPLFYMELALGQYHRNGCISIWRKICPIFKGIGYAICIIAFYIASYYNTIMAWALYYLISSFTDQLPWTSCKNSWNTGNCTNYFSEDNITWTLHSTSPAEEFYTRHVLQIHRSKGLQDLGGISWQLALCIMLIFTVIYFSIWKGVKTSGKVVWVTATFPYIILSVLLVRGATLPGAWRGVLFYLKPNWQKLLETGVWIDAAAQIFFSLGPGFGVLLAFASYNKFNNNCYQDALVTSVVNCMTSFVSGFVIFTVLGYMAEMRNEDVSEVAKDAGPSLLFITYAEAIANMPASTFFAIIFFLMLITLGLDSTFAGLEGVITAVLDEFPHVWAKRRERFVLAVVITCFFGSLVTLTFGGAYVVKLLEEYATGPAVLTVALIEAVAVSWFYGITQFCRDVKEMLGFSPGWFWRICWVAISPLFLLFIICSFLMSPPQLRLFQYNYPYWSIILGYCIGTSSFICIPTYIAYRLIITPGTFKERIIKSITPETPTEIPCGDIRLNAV
Sequence of Kappa-type opioid receptor (P41145 whole entry): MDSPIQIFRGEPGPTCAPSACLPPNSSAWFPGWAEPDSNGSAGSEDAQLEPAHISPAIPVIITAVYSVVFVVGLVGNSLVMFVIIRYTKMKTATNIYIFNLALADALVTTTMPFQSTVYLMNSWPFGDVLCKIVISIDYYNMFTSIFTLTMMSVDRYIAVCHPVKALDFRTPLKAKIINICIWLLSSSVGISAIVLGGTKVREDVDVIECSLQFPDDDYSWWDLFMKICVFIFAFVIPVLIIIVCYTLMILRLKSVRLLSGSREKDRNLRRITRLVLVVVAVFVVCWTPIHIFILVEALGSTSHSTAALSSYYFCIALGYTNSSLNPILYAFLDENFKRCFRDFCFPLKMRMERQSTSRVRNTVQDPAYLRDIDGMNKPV
Sequence of Histamine H3 receptor (Q9Y5N1 whole entry): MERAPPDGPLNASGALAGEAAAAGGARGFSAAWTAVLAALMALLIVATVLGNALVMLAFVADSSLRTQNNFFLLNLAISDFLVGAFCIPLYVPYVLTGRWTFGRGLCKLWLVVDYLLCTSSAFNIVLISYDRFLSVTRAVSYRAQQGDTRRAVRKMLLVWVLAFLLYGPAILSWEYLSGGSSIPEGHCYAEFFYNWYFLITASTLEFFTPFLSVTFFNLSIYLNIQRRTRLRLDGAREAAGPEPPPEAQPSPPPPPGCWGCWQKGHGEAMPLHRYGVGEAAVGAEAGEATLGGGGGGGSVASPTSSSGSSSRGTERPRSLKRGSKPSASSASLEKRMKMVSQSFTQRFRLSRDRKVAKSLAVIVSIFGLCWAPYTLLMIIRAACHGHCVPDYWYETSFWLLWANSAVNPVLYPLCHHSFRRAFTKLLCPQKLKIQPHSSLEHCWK
Sequence of Delta-type opioid receptor (P41143 whole entry): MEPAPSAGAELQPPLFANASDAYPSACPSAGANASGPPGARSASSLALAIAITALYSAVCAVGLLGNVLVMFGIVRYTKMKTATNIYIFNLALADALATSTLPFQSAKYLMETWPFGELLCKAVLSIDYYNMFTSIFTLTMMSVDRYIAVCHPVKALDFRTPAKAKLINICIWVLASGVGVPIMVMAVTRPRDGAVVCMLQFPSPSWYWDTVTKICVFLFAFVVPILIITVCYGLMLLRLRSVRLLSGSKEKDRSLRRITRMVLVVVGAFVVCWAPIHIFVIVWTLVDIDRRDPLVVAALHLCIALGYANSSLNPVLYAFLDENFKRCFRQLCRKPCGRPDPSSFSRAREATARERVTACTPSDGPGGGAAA

For the compound `CC(=O)Oc1cccc2c1C(=O)c1c(OC(C)=O)cc(C(=O)O)cc1C2=O` [DIACEREIN], the AC50 (usually the concentration at which the activity in the assay is half-maximal) in test [1] was 17 µM; in test [2], above 30 µM; in [3], above 30 µM; in [4], above 30 µM; in test [5] it was 23 µM; in test [6] it was above 30 µM. In addition, the AC50 in test [7], in [8] and in test [9] was above 30 µM in each case.
TEPRENONE: the AC50 in test [1] is above 30 µM; in test [2], above 30 µM; in test [3], above 30 µM; in test [4], above 30 µM; in test [10], above 30 µM; in [7] it was above 10 µM. Besides, the AC50 is 17 µM in [8] and above 10 µM in test [9].
For the compound `COc1ccc(-n2nc(C(N)=O)c3c2C(=O)N(c2ccc(N4CCCCC4=O)cc2)CC3)cc1` [APIXABAN], the AC50 in test [1], in test [2], in [3], in [4], in test [5] and in test [6] was above 30 µM in each case. Further, the half-maximal activity concentration (AC50) in test [7], in test [8] and in test [9] was above 30 µM each time.
For `CCN(CC)Cc1nccn1-c1ccc([N+](=O)[O-])cc1C(=O)c1ccccc1Cl` [NIZOFENONE], the AC50 in test [1], in [2], in [3], in test [4], in [5] and in test [6] was above 30 µM each time. Also, the AC50 in test [7] was above 30 µM; in test [8] it was 6.3 µM; in test [9], above 30 µM.
Regarding `CC1CC(OC(=O)C(O)c2ccccc2)CC(C)(C)C1` (configuration not stated) [CYCLANDELATE], the AC50 was above 10 µM in [1]; above 30 µM in test [2]; above 10 µM in test [4]; above 30 µM in test [10]; above 30 µM in test [6]; above 10 µM in [7]. Moreover, the AC50 in test [8] and in test [9] was above 10 µM in each case.
For the compound `CCCCOC(=O)c1ccc(N)cc1` [BUTAMBEN], the AC50 in test [1], in test [2], in test [4], in [10], in [6] and in [7] was above 30 µM throughout. Further, the AC50 in test [8] and in [9] was above 30 µM throughout.
As for `CC(=O)OCC1=C(C(=O)O)N2C(=O)[C@@H](NC(=O)CSc3ccncc3)[C@H]2SC1` [CEPHAPIRIN], the AC50 is above 10 µM in [1]; above 30 µM in test [2]; above 30 µM in test [3]; above 10 µM in [4]; above 10 µM in test [5]; above 30 µM in test [6]. In addition, the AC50 in [8] and in test [9] was above 10 µM each time.
In the case of `CC(C)(C)NCC(O)COc1cccc2c1CC(O)C(O)C2` (configuration not stated) [NADOLOL], the AC50 in test [1] is above 10 µM; in test [2] it was above 30 µM; in [4], above 10 µM; in [10], above 10 µM; in test [6] it was above 10 µM; in test [7], above 10 µM. Further, the AC50 in [8] and in [9] was above 10 µM in each case.
As to `CC(=O)N1CCN(c2ccc(OCC3COC(Cn4ccnc4)(c4ccc(Cl)cc4Cl)O3)cc2)CC1` (configuration not stated) [KETOCONAZOLE], the AC50 in test [1] was 17.7 µM; in [2] it was above 10 µM; in test [4] it was above 10 µM; in test [10], above 10 µM; in test [6], above 10 µM; in test [7], above 10 µM. The AC50 in test [8] and in [9] was above 10 µM in each case.
Consider `O=C(O)CCCC[C@@H]1SC[C@@H]2NC(=O)N[C@@H]21` [BIOTIN], for which the AC50 in test [1] was above 10 µM; in test [2], above 30 µM; in test [3], above 30 µM; in [4], above 10 µM; in [10], above 10 µM; in [8] it was above 10 µM. The compound further displayed an AC50 in [9] above 10 µM.
For `CN(Cc1ccc(C(C)(C)C)cc1)Cc1cccc2ccccc12` [BUTENAFINE], the AC50 is above 10 µM in test [1]; above 30 µM in [2]; above 10 µM in test [4]; above 30 µM in [10]; above 30 µM in [6]; above 10 µM in test [7]. Further, the AC50 in test [8] and in test [9] was above 10 µM in each case.
On to `CC(C)CN(C[C@@H](O)[C@H](Cc1ccccc1)NC(=O)O[C@H]1CCOC1)S(=O)(=O)c1ccc(N)cc1`, for which the AC50 in [1] is above 30 µM; in test [2], above 30 µM; in [4], above 30 µM; in [10] it was above 10 µM; in test [6], above 10 µM; in test [7], above 10 µM. Further, the concentration at half-maximal activity (AC50) in test [8] and in [9] was above 10 µM each time.
As to SITOSTEROLS, the AC50 in test [1], in [2], in test [3], in test [4], in test [10] and in test [7] was above 30 µM each time. Besides, the AC50 in test [8] and in [9] was above 30 µM in each case.
Regarding `CC(=O)OCC(=O)[C@@]1(O)CC[C@H]2[C@@H]3CCC4=CC(=O)CC[C@]4(C)[C@@]3(F)[C@@H](O)C[C@@]21C` [FLUDROCORTISONE ACETATE], the AC50 in [1] was above 30 µM; in test [2], above 30 µM; in [4], above 30 µM; in test [10], above 30 µM; in test [6], 8.2 µM; in [7], above 30 µM. In addition, the AC50 in [8] and in test [9] was above 30 µM throughout.
On to `CCN(C(C)=O)c1cccc(-c2ccnc3c(C#N)cnn23)c1` [ZALEPLON], for which the AC50 is above 30 µM in [1]; above 30 µM in test [2]; above 30 µM in [4]; above 30 µM in test [10]; above 30 µM in [6]; above 10 µM in [7]. Also, the AC50 in [8] and in test [9] was above 10 µM each time.
